{"source": "patent US20260183396A1", "about": "“CXCR3 OVEREXPRESSION IN CAR-NK CELLS PRIMES MIGRATION/HOMING INTO THE TUMOR MICROENVIRONMENT” (DANA-FARBER CANCER INSTITUTE, INC., priority 2022, published 2026)", "key": {"[1]": {"molecular_target": "T1, CXCR3 (Homo sapiens, UniProt P49682)", "T1 construct": "endogenous in cells; host or cells: primary NK cells (cNK, CIML); NK92 and JURKAT CXCR3+ lines; also CAR and CAR-CXCR3 transduced NK cells", "T1 sequence (P49682 1-368)": "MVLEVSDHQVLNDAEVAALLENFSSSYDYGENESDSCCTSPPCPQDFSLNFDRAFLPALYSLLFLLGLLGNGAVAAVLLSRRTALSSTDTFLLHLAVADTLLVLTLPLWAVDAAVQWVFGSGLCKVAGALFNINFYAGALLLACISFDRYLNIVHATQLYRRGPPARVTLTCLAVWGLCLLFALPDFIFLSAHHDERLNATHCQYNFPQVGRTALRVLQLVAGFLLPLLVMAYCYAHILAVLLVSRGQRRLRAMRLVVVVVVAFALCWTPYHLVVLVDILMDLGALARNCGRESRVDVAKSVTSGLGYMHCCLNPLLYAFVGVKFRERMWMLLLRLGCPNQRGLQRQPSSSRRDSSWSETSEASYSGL", "assay": "CXCR3 surface expression after hCXCL10, flow cytometry", "type": "cell-based", "settings": "NK cells, NK92, Jurkat; 200 ng hCXCL10", "description": "CXCR3 is degraded from the cell surface of primary NK cells and the NK cell lines NK92 and […] both expressing CXCR3, after stimulation with 200 ng of recombinant human C—X—C Motif Chemokine Ligand 10 (hCXCL10) at different time points, as illustrated in FIG. 17A-FIG. 18B, measured by flow cytometry and expressed as median fluorescent intensity (MFI) of the CXCR3 receptor. CXCR3 is also degraded from CAR and CAR-CXCR expressing cNK cells. FIG. 18C-FIG. 18D illustrate CXCR3 surface expression as measured by flow cytometry of primary NK cells (cNK) expressing CAR, CAR-CXCR3 or control, stimulated with 200 ng of recombinant human CXCL10 stimulation at different time points (0 and 60 minutes). CXCR3 is degraded from cNK NT, CAR-cNK, and CAR-NK CXCR+ cell surfaces after 1 hour of hCXCL10 treatment (FIG. 19C). CXCR3 is also degraded from cytokine-induced memory-like (CIML) NK NT, CIML CAR-NK, CIML CAR-NK CXCR+ after 1 hour of hCXCL10 treatment (FIG. 19D)."}, "[2]": {"test_system": "STING", "assay": "STING immunoblotting in NK cells and TILs", "type": "cell-based, human", "settings": "NK cells", "description": "Immunoblotting. […] Imaging of blots and was performed using the LI-COR Odyssey system."}, "[3]": {"test_system": "NK cells", "settings": "systemic administration, murine models; related manuscript; cited from earlier work"}, "[4]": {"test_system": "NK cells", "assay": "Immune cell toxicity assays, NK cells", "type": "cell-based", "settings": "72 hours of high dose exposure; regardless of IL-2 or co-culture with TILs", "description": "Immune Cell Toxicity Assays. […] Following treatment, samples were stained with anti-CD45, anti-CD3, anti-CD4, anti-CD8, and anti-CD56 antibodies (Table 1), as well as Zombie Green live/dead (Biolegend 423111) and analyzed by flow cytometry as described above. Data were analyzed using FlowJo software version 10.5.3. As an orthogonal measure of viability, CellTiter-Glo was performed on primary T-cells and NK cells.\nCellTiter-Glo luminescent cell viability assay. Cell viability was assessed using the CellTiter-Glo Luminescent Cell Viability assay (Promega, G7571) according to manufacturer's instructions. […] All conditions were tested in triplicate and plates were read on a Tecan Infinite Mplex Microplate Reader."}, "[5]": {"test_system": "MPM tumor cell lines", "assay": "3D vascular model of NK cell migration", "type": "cell-based, human", "description": "3D vascular model. To generate the tumor-vascular model, H226 spheroids were mixed with collagen rat tail hydrogel (2.5 mg/ml) and injected into the center gel region of the 3D microfluidic chamber (10-15 μL per each microfluidic chamber). After incubation for 30 minutes at 37° C. in sterile humidity chambers, the side wall of one flanked channel (media channel) was coated with a 150 μg/ml collagen solution in PBS to allow for better adhesion of eCs to the channel. After 15 mins, the channel was washed once with media. To create the 3D vessel, 25 μL cell suspension of 3×10^6 cells/ml human umbilical vein endothelial cells (HUVECs; C2519AS, Lonza) were injected in the media channel coated with collagen. The channel was rotated twice to create a confluent hollow-lumen 3D vessel. To allow the cells to attach to the media-gel interface and form a monolayer, the chip was incubated with cells face down for 15 mins. Next, 50 μL cell suspension was reinjected, and the chip was flipped to cover the upper part of the 3D vascular channel. After 90 mins of incubation in the humidity chamber at 37° C., cell culture media was gently added to both channels and further incubated to form a confluent monolayer. After vessel formation, NK cells (labelled with cell tracker) were added to the 3D vessel at 2:1 E:T ratio. […] NK cell migration+/−vessel was quantified at 24 hours. Image capture and analysis was performed using a fluorescence confocal microscope and processing software. The 3D vascular channels were rinsed in PBS and fixed with 4% PFA for 15 min at room temperature. Cell membranes were permeabilized with 0.1% Triton X-100 for 5 min at room temperature and washed twice with PBS. HUVEC cells were stained for F-actin with green phalloidin (Thermo Fisher Scientific A12379) and Hoechst 33342. Images were captured on a Nikon Eclipse 80i fluorescence microscope equipped with Z-stack (Prior) and CoolSNAP CCD camera (Roper Scientific)."}}}
{"compound": "hCXCL10: recombinant human C—X—C Motif Chemokine Ligand 10", "values": [{"measurement": "CXCR3 cell surface expression", "setting": "[1]", "value": "lost from the cell surface"}]}
{"compound": "CCN(CC)CCCC(C)Nc1ccnc2cc(Cl)ccc12", "note": "(stereo not drawn) [chloroquine]", "values": [{"measurement": "effect on ADU-S100 induced STING degradation", "setting": "[2]", "value": "prevented"}]}
{"compound": "Nc1ncnc2c1ncn2[C@@H]1O[C@@H]2CO[P@@](=O)(S)O[C@@H]3[C@H](O)[C@@H](CO[P@@](=O)(S)O[C@H]2[C@H]1F)O[C@H]3n1cc(F)c2c(=O)nc[nH]c21", "note": "[TAK-676]", "values": [{"measurement": "trafficking and activation of NK cells", "setting": "[3]", "value": "enhanced"}, {"measurement": "cytotoxicity in human NK cells", "setting": "[4]", "value": "no significant cytotoxicity"}, {"measurement": "overcoming a human vascular barrier", "setting": "[5]; ex vivo model", "value": "especially potent"}, {"measurement": "NK cell migration", "setting": "[5]; presence and absence of the vascular barrier", "value": "enhanced NK cell migration"}]}
